Target: Tyrosine-protein kinase BTK (Homo sapiens, UniProt Q06187)
Test: Inhibition of BTK (unknown origin) One-hour enzymatic assay without pre-incubation

Sequence of Tyrosine-protein kinase BTK (Q06187 whole entry): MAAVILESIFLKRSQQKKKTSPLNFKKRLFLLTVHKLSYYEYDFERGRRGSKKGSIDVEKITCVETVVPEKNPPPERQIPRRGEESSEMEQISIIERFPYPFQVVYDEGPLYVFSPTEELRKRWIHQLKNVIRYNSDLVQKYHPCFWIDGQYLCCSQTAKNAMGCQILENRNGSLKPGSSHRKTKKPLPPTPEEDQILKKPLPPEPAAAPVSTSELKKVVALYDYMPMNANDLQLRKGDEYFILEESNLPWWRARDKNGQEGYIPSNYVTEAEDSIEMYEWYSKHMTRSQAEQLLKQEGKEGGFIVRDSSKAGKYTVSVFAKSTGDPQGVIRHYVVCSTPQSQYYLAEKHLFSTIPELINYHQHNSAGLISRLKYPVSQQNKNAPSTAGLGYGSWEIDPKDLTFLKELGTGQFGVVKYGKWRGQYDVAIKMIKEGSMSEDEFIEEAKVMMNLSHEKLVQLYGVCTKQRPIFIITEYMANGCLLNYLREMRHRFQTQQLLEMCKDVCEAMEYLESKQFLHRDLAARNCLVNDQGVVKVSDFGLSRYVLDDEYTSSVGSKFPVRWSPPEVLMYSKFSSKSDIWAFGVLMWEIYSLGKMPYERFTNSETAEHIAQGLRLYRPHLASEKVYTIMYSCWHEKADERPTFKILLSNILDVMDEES

Row | Compound | IC50 [nM]
1 | N#CN1CCC[C@@H](n2nc(-c3ccc(Oc4ccc(F)cc4F)cc3)c(C(N)=O)c2N)C1 | 0.5
2 | C=CC(=O)N1CCC[C@@H](c2ccc(C(N)=O)c3[nH]ccc23)C1 [ELSUBRUTINIB] | 33

Source: ChEMBL document CHEMBL4706695, “Small molecule approaches to treat autoimmune and inflammatory diseases (Part I): Kinase inhibitors” (Bioorg Med Chem Lett, 2021)
